Experimental data reported in patent US10493159B2, “Protein transduction domains mimics” (University of Massachusetts, priority 2010, dated 2019).

Assay: Transport activity, carboxyfluorescein release from vesicles, Hill analysis
Details: EYPC⊃CF vesicles, no counterion activator
Procedure: Transport activities for these novel PTDMs were determined using the standard biophysical assay well documented in the CPP literature. (Hennig, et al. 2008 J. Am. Chem. Soc. 130, 10338.) Specifically, 5(6)-carboxyfluorescein (CF) was used as a fluorescent probe in egg yolk phosphatidylcholine large unilamellar vesicles (EYPC-LUVs). The activity of these transporters increased with increasing polymer concentration at a constant vesicle concentration as detected by CF emission intensity, yielding plots of fluorescence intensity versus polymer concentration (FIG. 42, FIG. 43). […] (Sakai, et al. 2003 J. Am. Chem. Soc. 125, 14348; Sakai, et al. 2006 Soft Matter 2, 636; Sakai, et al. 2005 Chembiochem 6, 114; Hennig, et al. 2008 J. Am. Chem. Soc. 130, 10338; Nishihara, et al. 2005 Org. Biomol. Chem., 3, 1659; Perret, et al. 2005 J. Am. Chem. Soc. 127, 1114.) This analysis gave Ymax (maximal CF release relative to complete release by Triton X-100), EC50 (effective polymer concentration needed to reach Ymax/2), and the Hill coefficient n (see Table 2).
Preparation of EYPC-LUVs⊃CF. […]
Polymer Activity in EYPC-LUVs⊃CF. […] The time-dependent change in fluorescence intensity It (λex=492 nm, λem=517 nm) was monitored during the addition of polymer (20 μL stock solution in DMSO) at t=100 s, and addition of 40 μl 1.2% (aq.) triton X-100 at the end of every experiment (t=900 s) (FIG. 42). […]

**Q.** With polyarginine as the substance, how does the “transport activity” value read?
**A.** inactive
